# From patent publication US6461997B1, “Triazole sulfones having herbicidal activity” (Monsanto Technology LLC, priority 1999, dated 2002)
# Experiments:
# ABUTH (velvetleaf) = test: Pre-emergence herbicidal activity, warm season; format: in vivo, Abutilon theophrasti; conditions: for Pre-emergence activity (GR80) ABUTH: GR80 = lowest tested rate (300, 100, 30, 10 g/ha) with 80% or greater inhibition, approx. 14 days after treating, 30/21° C.
# How it was run: (§1)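 Seeds sown in sterilised fertilised topsoil received surface-applied compound in 50:50 acetone/water, typically at 300, 100, 30 and 10 g/ha, then greenhouse-grown at 30/21° C (warm-season species) or 18/13° C (cool-season species). Percent inhibition versus untreated plants was scored at about 14 days, giving GR80; an asterisk marks activity short of 80% at the top rate.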
# CONAR (field bindweed) = test: Pre-emergence herbicidal activity, warm season; format: in vivo, Convolvulus arvensis; conditions: GR80 = lowest tested rate (300, 100, 30, 10 g/ha) with 80% or greater inhibition; approx. 14 days after treating; 30/21° C.
# How it was run: as §1
# LOLMG (annual ryegrass) = test: Pre-emergence herbicidal activity, cool season; format: in vivo, Lolium multiflorum; conditions: GR80 = lowest tested rate (300, 100, 30, 10 g/ha) with 80% or greater inhibition; approx. 14 days after treating; 18/13° C.
# How it was run: as §1
# [1] = test system: AGRRE (quackgrass (seedling)); test: Pre-emergence herbicidal activity, cool season; format: in vivo, Elymus repens; conditions: GR80 = lowest tested rate (300, 100, 30, 10 g/ha) with 80% or greater inhibition; approx. 14 days after treating; 18/13° C.
# How it was run: as §1
# [2] = test system: IPOSS (annual morningglory); test: Pre-emergence herbicidal activity, warm season; format: in vivo, Ipomoea spp.; conditions: Ipomoea, pre-emergence application, read-out: Percent inhibition, weed IPOSS
# Experimental: (§2) Tables 5 to 8 summarize results of tests conducted as described below to determine the pre-emergence herbicidal activity, in the form of a GR80 value, of illustrative compounds of this invention. […] Compounds of the invention were typically applied at rates of 300, 100, 30, and 10 g/ha. Where herbicidal activity was evident but 80% inhibition was not achieved at the highest rate tested, an asterisk (*) is shown in the following tables.
# (§3) The pre-emergence tests were conducted by the following procedure. Topsoil was sieved to pass through a 1.27 cm screen. Fertilizer was added to the topsoil and the mixture was then sterilized by heating. The topsoil mixture was placed in a pot and compacted to a depth of 1.0 to 1.25 cm from the top of the pot. Seeds of each of several monocotyledonous and dicotyledonous annual plant species were placed on top of the soil. Additional soil was subsequently placed over the seeds to level-fill the pot. A known amount of each test compound dissolved or suspended in an appropriate organic solvent was diluted with a 50:50 mix of acetone and water and applied to the surface of the soil. After treatment the plants were placed in a greenhouse where they received 0.64 cm of overhead irrigation. All subsequent watering consisted of a light overhead mist and/or subirrigation as needed for germination and growth. Tables 5 and 6 below relate to warm season plant species which were placed after pre-emergence treatment in a greenhouse with a 30/21° C. day/night temperature regime. Tables 7 and 8 below relates to cool season plant species placed after pre-emergence treatment in a greenhouse or growth chamber with an 18/13° C. day/night temperature regime.
# (§4) Approximately 14 days after planting and treating, the plants were observed and herbicidal efficacy recorded as percent inhibition by comparison with untreated plants.
# (§5) The plant species usually regarded as weeds which were utilized in the tests are identified in the tables below according to the following legend, in which “d” indicates a dicotyledonous species and “m” a monocotyledonous species. All monocotyledonous species included in the tests herein are grasses.
# XANST (cocklebur) = test: Pre-emergence herbicidal activity, warm season; format: in vivo; conditions: Xanthium strumarium, pre-emergence application, read-out: Percent inhibition, weed XANST
# Experimental: as §2, §3, §4, §5
# KCHSC (kochia) = test: Pre-plant incorporated (PPI) herbicidal activity, cool season; format: in vivo, Kochia scoparia; conditions: pre-plant incorporated; lowest tested rate with 80% or greater inhibition; about 14 days
# Experimental: In another set of tests, the pre-plant incorporated (PPI) activity of compounds of this invention was evaluated on the same species as for the pre-emergence tests described above. In the PPI tests the following procedure, designed to simulate PPI application, was used.
# A pre-prepared topsoil mixture (described above) was placed in a pot and compacted to a depth of 1.0 to 1.25 cm from the top of the pot. Seeds of each of several monocotyledonous and dicotyledonous annual plant species were placed on top of the soil. A sufficient quantity of soil to cover the seeds and level fill the pot was weighed into an open container. A known amount of the test compound was dissolved or suspended in an organic solvent and applied by spraying to this cover soil. The cover soil was thoroughly mixed to distribute the test compound throughout the cover soil, and was then applied as a cover layer over the seeds. Untreated soil was used as a cover layer for control pots. After treatment the plants were placed in a greenhouse where they received 0.64 cm of overhead irrigation. All subsequent watering consisted of a light overhead mist and/or subirrigation as needed for germination and growth. Tables 9 and 10 below relate to warm season plant species which were placed after pre-emergence treatment in a greenhouse with a 30/21° C. day/night temperature regime. Tables 11 and 12 below relates to cool season plant species placed after pre-emergence treatment in a greenhouse or growth chamber with an 18/13° C. day/night temperature regime. Only the compounds of Examples 1, 6, 8, 11, 13 and 15-20 were included in PPI tests.
# as §4
# corn (ZEAMX) = test: Selectivity test, pre-emergence, warm season crop; format: in vivo; conditions: Zea mays, pre-emergence application, read-out: Percent inhibition, crop ZEAMX
# Experimental: as §3, §4
# (§6) Additional pre-emergence and PPI tests were conducted by the procedures described above, on warm and cool season weed species in the presence of crop species, to assess herbicidal selectivity. Crop species included in warm season tests were corn (Zea mays, ZEAMX), rice (Oryza sativa, ORYSA) and soybean (Glycine max, GLYMX). Crop species included in cool season tests were wheat (Triticum aestivum, TRZAW), barley (Hordeunm vulgare, HORVX) and oilseed rape (Brassica napus, BRSNS).
# (§7) Tables 15 and 16 relate to pre-emergence and PPI tests respectively on warm season species. Table 17 relates to pre-emergence tests on cool season species.
# rice (ORYSA) = test: Selectivity test, pre-emergence, warm season crop; format: in vivo; conditions: Oryza sativa, pre-emergence application, read-out: Percent inhibition, crop ORYSA
# Experimental: as §3, §4, §6, §7
# soybean (GLYMX) = test: Selectivity test, pre-emergence, warm season crop; format: in vivo; conditions: Glycine max, pre-emergence application, read-out: Percent inhibition, crop GLYMX
# Experimental: as §3, §4, §6, §7
# SEBEX = test: Pre-plant incorporated (PPI) herbicidal activity, warm season; format: in vivo; conditions: PPI application, read-out: Percent inhibition SEBEX
# Experimental: as §6
# [3] = Abutilon theophrasti, pre-emergence application, read-out: Percent inhibition, weed ABUTH
compound,measurement,setting,value
"CCN(CC)C(=O)n1cnc(S(=O)(=O)C(F)(F)Br)n1 [Example 1, 3-(bromodifluoromethylsulfonyl)-1-(N,N-diethylcarbamoyl)-1,2,4-triazole]",inhibition at 10 g/ha,ABUTH (velvetleaf); [3],0%
same,inhibition at 30 g/ha,ABUTH (velvetleaf); [3],0%
same,inhibition at 300 g/ha,ABUTH (velvetleaf); [3],0%
same,inhibition at 900 g/ha,ABUTH (velvetleaf); [3],0%
same,Pre-emergence activity (GR80) ABUTH,ABUTH (velvetleaf),300 g/ha
same,Pre-emergence activity (GR80) CONAR,CONAR (field bindweed),300 g/ha
same,Pre-emergence activity (GR80) LOLMG,LOLMG (annual ryegrass),100 g/ha
same,Pre-emergence activity (GR80) AGRRE,[1],300 g/ha
same,inhibition at 10 g/ha,[2],0%
same,inhibition at 30 g/ha,[2],0%
same,inhibition at 100 g/ha,[2],0%
same,inhibition at 300 g/ha,[2],0%
same,inhibition at 900 g/ha,[2],0%
same,inhibition at 10 g/ha,XANST (cocklebur),0%
same,inhibition at 30 g/ha,XANST (cocklebur),0%
same,"PPI activity GR80, KCHSC",KCHSC (kochia),100 g/ha
same,inhibition at 10 g/ha,corn (ZEAMX),0%
same,inhibition at 30 g/ha,corn (ZEAMX),0%
same,inhibition at 100 g/ha,corn (ZEAMX),0%
same,inhibition at 300 g/ha,corn (ZEAMX),0%
same,inhibition at 900 g/ha,corn (ZEAMX),10%
same,inhibition at 10 g/ha,rice (ORYSA),0%
same,inhibition at 30 g/ha,rice (ORYSA),0%
same,inhibition at 100 g/ha,rice (ORYSA),0%
same,inhibition at 900 g/ha,rice (ORYSA),10%
same,inhibition at 10 g/ha,soybean (GLYMX),0%
same,inhibition at 30 g/ha,soybean (GLYMX),0%
same,inhibition at 100 g/ha,soybean (GLYMX),0%
same,inhibition at 900 g/ha,soybean (GLYMX),0%
same,melting point,,74 to 75 °C
same,inhibition at 10 g/ha,SEBEX,0%
same,inhibition at 30 g/ha,SEBEX,0%
same,inhibition at 100 g/ha,SEBEX; 100 g/ha,0%
same,inhibition at 300 g/ha,SEBEX,0%
same,inhibition at 900 g/ha,SEBEX,20%
"CCN(CC)C(=O)n1cnc(S(=O)(=O)C(F)F)n1 [Example 15, 1-(N,N-diethylcarbamoyl)-3-(difluoromethylsulfonyl)-1,2,4-triazole]",inhibition at 10 g/ha,ABUTH (velvetleaf); [3],0%
same,inhibition at 30 g/ha,ABUTH (velvetleaf); [3],0%
same,inhibition at 100 g/ha,"ABUTH (velvetleaf); Abutilon theophrasti, pre-emergence application, 100 g/ha, read-out: Percent inhibition, weed ABUTH",0%
same,inhibition at 300 g/ha,ABUTH (velvetleaf); [3],0%
same,inhibition at 900 g/ha,ABUTH (velvetleaf); [3],0%
same,Pre-emergence activity (GR80) ABUTH,ABUTH (velvetleaf),300 g/ha
same,inhibition at 10 g/ha,[2],0%
same,inhibition at 30 g/ha,[2],0%
same,inhibition at 100 g/ha,[2],0%
same,inhibition at 300 g/ha,[2],0%
same,inhibition at 900 g/ha,[2],0%
same,inhibition at 10 g/ha,XANST (cocklebur),0%
same,inhibition at 30 g/ha,XANST (cocklebur),0%
same,inhibition at 100 g/ha,XANST (cocklebur); 100 g/ha,0%
same,inhibition at 300 g/ha,XANST (cocklebur); 300 g/ha,0%
same,"PPI activity GR80, KCHSC",KCHSC (kochia),100 g/ha
same,inhibition at 10 g/ha,corn (ZEAMX),0%
same,inhibition at 30 g/ha,corn (ZEAMX),0%
same,inhibition at 100 g/ha,corn (ZEAMX),0%
same,inhibition at 300 g/ha,corn (ZEAMX),0%
same,inhibition at 900 g/ha,corn (ZEAMX),0%
same,inhibition at 10 g/ha,rice (ORYSA),0%
same,inhibition at 30 g/ha,rice (ORYSA),0%
same,inhibition at 100 g/ha,rice (ORYSA),0%
same,inhibition at 300 g/ha,rice (ORYSA); 300 g/ha,0%
same,inhibition at 900 g/ha,rice (ORYSA),0%
same,inhibition at 10 g/ha,soybean (GLYMX),0%
same,inhibition at 30 g/ha,soybean (GLYMX),0%
same,inhibition at 100 g/ha,soybean (GLYMX),0%
same,inhibition at 300 g/ha,soybean (GLYMX); 300 g/ha,0%
same,inhibition at 900 g/ha,soybean (GLYMX),10%
same,melting point,,58 to 59 °C
same,inhibition at 10 g/ha,SEBEX,0%
same,inhibition at 30 g/ha,SEBEX,0%
same,inhibition at 300 g/ha,SEBEX,0%
same,inhibition at 900 g/ha,SEBEX,50%
